The test has as its system GM01896 cells (MPS II dermal fibroblasts). Briefly: Assay 1: MPS cellular assay, MPS II (heparan sulfate disaccharide biomarkers by LC-MS). It counts as cell-based, human. The conditions noted are these: Assay 1 for MPS II, heparan sulfate disaccharide biomarkers (I2a4, I2a6, I2S0 and/or I2S6), read-out: IC50 Range. The method, then:
Dermal fibroblasts from humans with an MPS disorder and from healthy donors are grown. Cells are expanded and kept in culture for analysis. Human foreskin fibroblasts can be obtained from the American Type Culture Collection (CRL-1634). Human dermal fibroblasts derived from biopsies of individuals are purchased from Coriell Institute: clinically healthy individuals, GM00408, GM00409, GM00200 (clinically unaffected sibling of an individual with metachromatic leukodystrophy), GM05659, GM08398, and GM15871 (clinically unaffected sibling of an individual with unclassified Ehlers-Danlos syndrome); heterozygous MPS I carriers, GM01392, GM01393 and GM0003; homozygous individuals affected with MPS I, GM06214, GM11495, GM00034, GM01391 and GM01256; individuals with MPS II, GM01896, GM03181, GM00615 and GM00298; individuals with MPS IIIA, GM00879, GM00643, GM00934, GM06110 and GM00629; MPS IIIB, GM01426; MPS IIIC, GM05157; MPS IIID, GM05093; and MPS VII, GM00121. All cells are grown in DMEM containing 50 U ml-1 penicillin, […] ml-1 streptomycin, 2 mM glutamine and 10% FBS. Cells are seeded on 15-cm-diameter tissue culture dishes, grown to confluence and maintained in culture for analysis. Sulfamidase activity in cell extracts is measured with 4-methylumbelliferyl-α-D-N-sulfoglucosaminide according the vendors instructions substituting Tris-acetate buffer (pH 6.5; Moscerdam).
Cells are treated with a compound of the invention at a concentration at or below 30 μM for 4 to 21 days. Cell monolayers are washed with phosphate buffered saline and detached by treatment with GIBCO trypsin-EDTA solution (Invitrogen). After centrifugation, the supernatant is removed and the cells are lysed in 0.5 mL of 0.1 N sodium hydroxide. The amount of protein is determined by bicinchoninic acid (BCA assay, Thermo Scientific). GAGs are isolated by anion exchange chromatography and digested with glycosaminoglycan lyases (heparinases I, II, and III, IBEX).
Enzymatically depolymerized GAG preparations are differentially mass labeled by reductive amination with [^12C6]aniline. Briefly, heparan sulfate disaccharides (1-10 pmol) are dried down in a centrifugal evaporator and reacted with [^12C6]aniline or [^13C6]aniline (15 μL, 165 μmol) and 15 μL of 1 M NaCNBH3 (Sigma-Aldrich) freshly prepared in dimethylsulfoxide/acetic acid (7:3, v/v) is added to each sample. Reactions are carried out at 37° C. for 16 h and then dried in a centrifugal evaporator. Unsubstituted amines are reacted with propionic anhydride (Sigma-Aldrich). Dried samples are reconstituted in 20 μL of 50% methanol, and 3 μL of propionic anhydride (Sigma-Aldrich, 23.3 μmol) is added. Reactions are carried out at ˜23° C. for 2 h. Acylated disaccharides are subsequently aniline tagged as described above. Each sample is mixed with commercially available standard unsaturated disaccharides (Seikagaku), standard N-sulfoglucosamine, glucosamine-6-sulfate, N-acetylgalactosamine-4-sulfate and N-acetylgalactosamine-6-sulfate (Sigma-Aldrich), and/or synthesized α-L-idopyranosyluronate-(1,4)-2-N-acetyl-2-deoxy-α/β-D-glucopyranoside (I0S0). All standards are tagged with [^13C6]aniline (Sigma-Aldrich). Samples are then analyzed by LC-MS using an LTQ Orbitrap Discovery electrospray ionization mass spectrometer (Thermo Scientific) equipped with quaternary HPLC pump (Finnigan Surveyor MS pump) and a reverse-phase capillary column as described in J. Biol. Chem. 2008, 283(48), 33674.
MPS II: Assay 1, as described above, was used to determine activity for MPS II using GM01896 cells. […] Extracted ion chromatograms were obtained. Cell viability was monitored using alamar blue or ATP quantification. IC50's were calculated using curve fitting within the ChemInnovation CBIS database system.

pIC50: −log10 of the molar value. Like-named read-outs stand apart in the source and are kept apart here.

By pIC50 is commonly meant the negative decadic logarithm of the IC50, by convention in mol/L. Take `Cn1ccc2ccc(Nc3cc(-c4ccc5c(CCN)nn(C)c5c4)nc(N4CCOCC4)n3)cc21` [{6-[3-(2-aminoethyl)-1-methyl(1H-indazol-6-yl)]-2-morpholin-4-ylpyrimidin-4-yl}(1-methylindol-6-yl)amine]: the pIC50 (Homo sapiens, Fibroblast) is above 6.30.
On to `CCc1nn(C)c2cc(-c3cc(Nc4ccc(Cl)cc4)nc(N4CCOCC4)n3)ccc12` [(4-chlorophenyl)[6-(3-ethyl-1-methyl(1H-indazol-6-yl))-2-morpholin-4-ylpyrimidin-4-yl]amine], for which, under “Homo sapiens, Fibroblast”, the pIC50 was 5.30 to 6.00.
Same read-out and setting: under `Cc1nnc(-c2ccc(Nc3cc(-c4cnc5cnn(C)c5c4)nc(N4CCOCC4)n3)cc2)[nH]1` [[4-(5-methyl(4H-1,2,4-triazol-3-yl))phenyl][6-(1-methylpyrazolo[4,5-b]pyridin-6-yl)-2-morpholin-4-ylpyrimidin-4-yl]amine] stands above 6.30; under `Cc1nn(C)c2cc(-c3cc(Nc4ccc5ccn(C)c5c4)nc(N4CCOCC4)n3)ccc12` [[6-(1,3-dimethyl(1H-indazol-6-yl))-2-morpholin-4-ylpyrimidin-4-yl](1-methylindol-6-yl)amine], above 6.30; under `Cn1ncc2ccc(-c3cc(Nc4ccc5nnn(C)c5c4)nc(N4CCOCC4)n3)cc21` [[6-(1-methyl(1H-indazol-6-yl))-2-morpholin-4-ylpyrimidin-4-yl](1-methylbenzotriazol-6-yl)amine], 5.30 to 6.00.
For the compound `CN(C)CCCn1cnc2cc(-c3cc(Nc4ccc(Cl)cc4)nc(N4CCOCC4)n3)ccc21` [[3-(5-{6-[(4-chlorophenyl)amino]-2-morpholin-4-ylpyrimidin-4-yl}benzimidazolyl)propyl]dimethylamine], the pIC50 was 6.00 to 6.30.
In the case of `NC(=O)c1ccc(Nc2cc(-c3ccc4ncn(CCN5CCOCC5)c4c3)nc(N3CCOCC3)n2)cc1` [4-({2-morpholin-4-yl-6-[1-(2-morpholin-4-ylethyl)benzimidazol-6-yl]pyrimidin-4-yl}amino)benzamide], the pIC50 (Homo sapiens, Fibroblast) is 5.30 to 6.00.
With `Cn1ncc2ccc(-c3cc(Nc4cccc(-c5ncco5)c4)nc(N4CCOCC4)n3)cc21` [[6-(1-methyl(1H-indazol-6-yl))-2-morpholin-4-ylpyrimidin-4-yl](3-(1,3-oxazol-2-yl)phenyl)amine], under “Homo sapiens, Fibroblast”, the pIC50 is 5.30 to 6.00.
Same read-out and setting: under `Cn1ncc2ccc(-c3cc(Nc4ccc5ncoc5c4)nc(N4CCOCC4)n3)cc21` [benzoxazol-6-yl[6-(1-methyl(1H-indazol-6-yl))-2-morpholin-4-ylpyrimidin-4-yl]amine] stands 5.30 to 6.00; under `Cc1nn(C)c2cc(-c3cc(Nc4ccc(-c5ncno5)cc4)nc(N4CCOCC4)n3)ccc12` [[6-(1,3-dimethyl(1H-indazol-6-yl))-2-morpholin-4-ylpyrimidin-4-yl](4-(1,2,4-oxadiazol-5-yl)phenyl)amine], 5.30 to 6.00; under `CNC(=O)c1ccc(Nc2cc(-c3ccc4nc[nH]c4c3)nc(N3CCOCC3)n2)cn1` [{5-[(6-benzimidazol-6-yl-2-morpholin-4-ylpyrimidin-4-yl)amino](2-pyridyl)}-N-methylcarboxamide], 5.30 to 6.00.
Regarding `CN(C)CCn1ncc2ccc(-c3cc(Nc4ccc(Cl)cc4)nc(N4CCOCC4)n3)cc21` [[2-(6-{6-[(4-chlorophenyl)amino]-2-morpholin-4-ylpyrimidin-4-yl}(1H-indazolyl))ethyl]dimethylamine], the pIC50 (Homo sapiens, Fibroblast) is 6.00 to 6.30.
Consider `CNC(=O)c1ccc(Nc2cc(-c3ccc4nc(C)n(C5CC5)c4c3)nc(N3CCOCC3)n2)cc1` [(4-{[6-(1-cyclopropyl-2-methylbenzimidazol-6-yl)-2-morpholin-4-ylpyrimidin-4-yl]amino}phenyl)-N-methylcarboxamide], for which, where the note is “Homo sapiens, Fibroblast”, the pIC50 is above 6.30.
For `Cn1ncc2cc(Nc3cc(-c4ccc5cnn(C)c5c4)nc(N4CCOCC4)n3)ccc21` [(1-methyl(1H-indazol-5-yl))[6-(1-methyl(1H-indazol-6-yl))-2-morpholin-4-ylpyrimidin-4-yl]amine], for the setting “Homo sapiens, Fibroblast”, the pIC50 is 5.30 to 6.00.
Same read-out and setting: in the case of `CNC(=O)c1ccc(Nc2cc(-c3ccc4cnn(CCCN5CCCC5)c4c3)nc(N3CCOCC3)n2)cc1` [N-methyl[4-({2-morpholin-4-yl-6-[1-(3-pyrrolidinylpropyl)(1H-indazol-6-yl)]pyrimidin-4-yl}amino)phenyl]carboxamide] it was above 6.30.
On the same count and under the same terms, in the case of `Cn1nc(CCN2CCOCC2)c2ccc(-c3cc(Nc4ccc(-c5ccn[nH]5)cc4)nc(N4CCOCC4)n3)cc21` [{6-[1-methyl-3-(2-morpholin-4-ylethyl)(1H-indazol-6-yl)]-2-morpholin-4-ylpyrimidin-4-yl}(4-pyrazol-5-ylphenyl)amine] it was above 6.30.
As for `Cc1c[nH]nc1-c1ccc(Nc2cc(-c3ccc4cnn(C)c4c3)nc(N3CCOCC3)n2)cc1` [[6-(1-methyl(1H-indazol-6-yl))-2-morpholin-4-ylpyrimidin-4-yl][4-(4-methylpyrazolyl)phenyl]amine], for the setting “Homo sapiens, Fibroblast”, the pIC50 is 5.30 to 6.00.
Still for that read-out and setting: in the case of `Cc1cnn(-c2ccc(Nc3cc(-c4ccc5c(C)nn(C)c5c4)nc(N4CCOCC4)n3)cc2)n1` [[6-(1,3-dimethyl(1H-indazol-6-yl))-2-morpholin-4-ylpyrimidin-4-yl][4-(4-methyl(1,2,3-triazol-2-yl))phenyl]amine] it was above 6.30; in that of `Cn1cnc(-c2ccc(Nc3cc(-c4ccc5cnn(C)c5c4)nc(N4CCOCC4)n3)cc2)c1` [[6-(1-methyl(1H-indazol-6-yl))-2-morpholin-4-ylpyrimidin-4-yl][4-(1-methylimidazol-4-yl)phenyl]amine], 6.00 to 6.30.
As to `Clc1ccc(Nc2cc(-c3ccc4c(Cl)nn(CCCN5CCOCC5)c4c3)nc(N3CCOCC3)n2)cc1` [{6-[3-chloro-1-(3-morpholin-4-ylpropyl)(1H-indazol-6-yl)]-2-morpholin-4-ylpyrimidin-4-yl}(4-chlorophenyl)amine], the pIC50 (Homo sapiens, Fibroblast) is 5.30 to 6.00.
As to `Cc1nc2cc(-c3cc(Nc4ccc(Cl)cc4)nc(N4CCOCC4)n3)ccc2n1CCN1CCCC1` [(4-chlorophenyl){6-[2-methyl-1-(2-pyrrolidinylethyl)benzimidazol-5-yl]-2-morpholin-4-ylpyrimidin-4-yl}amine], the pIC50 (Homo sapiens, Fibroblast) is 6.00 to 6.30.
For `CNC(=O)c1ccc(Nc2cc(-c3ccc4ncn(C5CC5)c4c3)nc(N3CCOCC3)n2)cn1` [(5-{[6-(1-cyclopropylbenzimidazol-6-yl)-2-morpholin-4-ylpyrimidin-4-yl]amino}(2-pyridyl))-N-methylcarboxamide], the pIC50 (Homo sapiens, Fibroblast) was 6.00 to 6.30.
On the same count and under the same terms, under `Cn1ncc2ccc(-c3cc(Nc4ccc5c(c4)nnn5C)nc(N4CCOCC4)n3)cc21` [[6-(1-methyl(1H-indazol-6-yl))-2-morpholin-4-ylpyrimidin-4-yl](1-methylbenzotriazol-5-yl)amine] stands 5.30 to 6.00; under `COc1ccc(Cn2cc(-c3ccc(Nc4cc(-c5ccc6c(C)nn(C)c6c5)nc(N5CCOCC5)n4)cc3)cn2)cc1` [[6-(1,3-dimethyl(1H-indazol-6-yl))-2-morpholin-4-ylpyrimidin-4-yl](4-{1-[(4-methoxyphenyl)methyl]pyrazol-4-yl}phenyl)amine], 5.30 to 6.00.
For `CN1CCN(CCc2nn(C)c3cc(-c4cc(Nc5ccc(Cl)cc5)nc(N5CCOCC5)n4)ccc23)CC1` [(4-chlorophenyl)(6-{1-methyl-3-[2-(4-methylpiperazinyl)ethyl](1H-indazol-6-yl)}-2-morpholin-4-ylpyrimidin-4-yl)amine], the pIC50 (Homo sapiens, Fibroblast) was 6.00 to 6.30.
Still for that read-out and setting: in the case of `COc1cc(Nc2cc(-c3ccc4cnn(C)c4c3)nc(N3CCOCC3)n2)ccn1` [(2-methoxy(4-pyridyl))[6-(1-methyl(1H-indazol-6-yl))-2-morpholin-4-ylpyrimidin-4-yl]amine] it was 6.00 to 6.30.
